Assay: Kinetic study in dogs (oral administration, plasma levodopa)
Settings: dog, in vivo, po, 3 mg/kg; for Cmax/C6 hr (ratio of maximum plasma concentration and plasma concentration at 6 hours after oral administration, levodopa): male, beagle
Excerpt: The relationship between the blood concentration of levodopa and side effects in patients who take levodopa has been gradually elucidated. […] In order to reduce the number of doses of levodopa and avoid side effects such as dyskinesia and wearing-off in patients who take levodopa, it is necessary to maintain the blood concentration of levodopa within a therapeutic range as long as possible.
These levodopa prodrugs are prodrugs containing an ester bond, and therefore, it is considered that among a number of enzymes, carboxyesterase plays the most important role in the process of producing levodopa by metabolizing the compound after the compound is administered in vivo. Therefore, as an animal species to be used for performing a kinetic study, dogs in which the organ distribution of carboxyesterase is most similar to that of humans were selected as subjects for evaluation.
The thus obtained drug solution was administered by gavage through a gastric tube into the stomach of dogs (male beagle dogs) which were fasted from the day before the administration. At 15 and 30 minutes, and 1, 2, 4, 6, and 8 hours after administration of the drug solution, 1 mL of blood was collected from a cephalic vein with a heparinized syringe. Immediately after the collection, the collected blood was centrifuged in a desktop centrifuge at 14500 rpm for 45 seconds. Then, acetonitrile containing 0.1125% formic acid was added to the thus obtained plasma in an amount as twice as large as the volume of the plasma, followed by stirring, and then, the resulting sample was stored at −20° C. until measurement.
The sample was thawed on the measurement day, followed by stirring and centrifugation at 13000 rpm for 3 minutes (at 4° C.). The resulting supernatant was filtered and the filtrate was analyzed by LC/MS/MS. The analysis was performed by LC/MS/MS under the following conditions.
Measurement Apparatus: API-5000 (manufactured by Applied Biosystems, Inc.)
Analytical column: CAPCELL PAK CR (1:4) (4.6 mm, I.D.×250 mm, 5 μm)
Analytical column temperature: 40° C.
Mobile phase: A: 5 mM ammonium formate (pH 3.9), B: acetonitrile (A/B=17/3)
Detection (levodopa): m/z (precursor): 196.19, m/z (product): 134.99
DP (Declustering Potential): −60
CE (Collision Energy): −25
CXP (Collision Cell Exit Potential): −17
Incidentally, the numerical value in the column which indicates the dose expressed in terms of levodopa refers to a dose equivalent to that of levodopa.

SMILES	AUC (area under the blood concentration-time curve of levodopa)	Cmax/C6 hr (ratio of maximum plasma concentration and plasma concentration at 6 hours after oral administration, levodopa)
COC(=O)[C@@H](N)Cc1ccc(OC(=O)CC(C)(C)C)c(OC(=O)CC(C)(C)C)c1 [Compound X, 3,3-dimethyl-butyric acid 4-((S)-2-amino-2-methoxycarbonyl-ethyl)-2-(3,3-dimethyl-butyryloxy)phenyl ester]	0.42 μg^+ hr/mL	12.6
CCC(C)(CC)C(=O)Oc1ccc(C[C@H](N)C(=O)O)cc1OC(=O)C(C)(CC)CC.Cl [Reference Example 18, (2S)-2-Amino-3-(3,4-bis((2-ethyl-2-methylbutanoyl)oxy)phenyl)propanoic acid hydrochloride]	0.12 μg^+ hr/mL	2.9
CC(C)(C)CCC(=O)Oc1ccc(C[C@H](N)C(=O)O)cc1OC(=O)CCC(C)(C)C.Cl [Reference Example 19, (2S)-2-Amino-3-(3,4-bis((4,4-dimethylpentanoyl)oxy)phenyl)propanoic acid hydrochloride]	0.70 μg^+ hr/mL	221.2
CCC(C)(CC)CC(=O)Oc1ccc(C[C@H](N)C(=O)O)cc1OC(=O)CC(C)(CC)CC.Cl [Reference Example 21, (2S)-2-Amino-3-(3,4-bis((3-ethyl-3-methylpentanoyl)oxy)phenyl)propanoic acid hydrochloride]	0.27 μg^+ hr/mL	8.8
CC(C)C(CC(=O)Oc1ccc(C[C@H](N)C(=O)O)cc1OC(=O)CC(C(C)C)C(C)C)C(C)C.Cl [Reference Example 22, (2S)-2-Amino-3-(3,4-bis((3-isopropyl-4-methylpentanoyl)oxy)phenyl)propanoic acid hydrochloride]	0.28 μg^+ hr/mL	6.6
Cc1ccccc1C(=O)Oc1ccc(C[C@H](N)C(=O)O)cc1OC(=O)c1ccccc1C.Cl [Reference Example 23, (2S)-2-Amino-3-(3,4-bis((2-methylbenzoyl)oxy)phenyl)propanoic acid hydrochloride]	0.59 μg^+ hr/mL	41.5
N[C@@H](Cc1ccc(OC(=O)c2ccccc2C(F)(F)F)c(OC(=O)c2ccccc2C(F)(F)F)c1)C(=O)O [Reference Example 25, (2S)-2-Amino-3-(3,4-bis((2-(trifluoromethyl)benzoyl)oxy)phenyl)propanoic acid]	0.31 μg^+ hr/mL	24.2
Cl.N[C@@H](Cc1ccc(OC(=O)C2CC2)c(OC(=O)C2CC2)c1)C(=O)O [Reference Example 26, (2S)-2-Amino-3-(3,4-bis((cyclopropanecarbonyl)oxy)phenyl)propanoic acid hydrochloride]	0.45 μg^+ hr/mL	18.0
CC1(C(=O)Oc2ccc(C[C@H](N)C(=O)O)cc2OC(=O)C2(C)CC2)CC1.Cl [Reference Example 27, (2S)-2-Amino-3-(3,4-bis((1-methylcyclopropanecarbonyl)oxy)phenyl)propanoic acid hydrochloride]	0.84 μg^+ hr/mL	58.7
Cl.N[C@@H](Cc1ccc(OC(=O)CC2CCCC2)c(OC(=O)CC2CCCC2)c1)C(=O)O [Reference Example 28, (2S)-2-Amino-3-(3,4-bis(2-cyclopentylacetoxy)phenyl)propanoic acid hydrochloride]	0.68 μg^+ hr/mL	304.4
Cl.N[C@@H](Cc1ccc(OC(=O)CC2CCCCC2)c(OC(=O)CC2CCCCC2)c1)C(=O)O [Reference Example 29, (2S)-2-Amino-3-(3,4-bis(2-cyclohexylacetoxy)phenyl)propanoic acid hydrochloride]	0.59 μg^+ hr/mL	98.5
CC1(CC(=O)Oc2ccc(C[C@H](N)C(=O)O)cc2OC(=O)CC2(C)CCCCC2)CCCCC1.Cl [Reference Example 30, (2S)-2-Amino-3-(3,4-bis(2-(1-methylcyclohexyl)acetoxy)phenyl)propanoic acid hydrochloride]	0.36 μg^+ hr/mL	12.8
CC1(CC(=O)Oc2ccc(C[C@H](N)C(=O)O)cc2OC(=O)CC2(C)CCCC2)CCCC1.Cl [Reference Example 31, (2S)-2-Amino-3-(3,4-bis(2-(1-methylcyclopentyl)acetoxy)phenyl)propanoic acid hydrochloride]	0.42 μg^+ hr/mL	18.7
CC(=O)OC(C)(C)C(=O)Oc1ccc(C[C@H](N)C(=O)O)cc1OC(=O)C(C)(C)OC(C)=O.Cl [Reference Example 32, (2S)-2-Amino-3-(3,4-bis((2-acetoxy-2-methylpropanoyl)oxy)phenyl)propanoic acid hydrochloride]	0.53 μg^+ hr/mL	40.7
CCC(CC)(OC(=O)c1ccccc1)C(=O)Oc1ccc(C[C@H](N)C(=O)O)cc1OC(=O)C(CC)(CC)OC(=O)c1ccccc1.Cl [Reference Example 33, (2S)-2-Amino-3-(3,4-bis((2-(benzoyloxy)-2-ethylbutanoyl)oxy)phenyl)propanoic acid hydrochloride]	0.003 μg^+ hr/mL	2.0
C[C@H](OC(=O)c1ccccc1)C(=O)Oc1ccc(C[C@H](N)C(=O)O)cc1OC(=O)[C@H](C)OC(=O)c1ccccc1.Cl [Reference Example 34, (2S)-2-Amino-3-(3,4-bis(((S)-2-(benzoyloxy)propanoyl)oxy)phenyl)propanoic acid hydrochloride]	0.10 μg^+ hr/mL	16.1
C[C@@H](OC(=O)c1ccccc1)C(=O)Oc1ccc(C[C@H](N)C(=O)O)cc1OC(=O)[C@@H](C)OC(=O)c1ccccc1.Cl [Reference Example 35, (2S)-2-Amino-3-(3,4-bis(((R)-2-(benzoyloxy)propanoyl)oxy)phenyl)propanoic acid hydrochloride]	0.77 μg^+ hr/mL	1039.6
